{"source": "PubChem BioAssay AID1963841", "about": "(Molecular Pharmacology Branch, DTP, NCI, 2024);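 also: spheroids exposed to compounds for seven days before readout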;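 as to viability, T/C: 100% = DMSO vehicle control viability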", "test_system": "439559-082-T-J2-PDC spheroid viability", "experiment": "Anticancer human tumor 439559-082-T-J2-PDC patient-derived colon adenocarcinoma cell line growth inhibition [POLQ]", "conditions": "spheroids with HUVEC and MSC; for IC50: curve of first compound; for viability, T/C: stronger effect = lower value", "method": "Multicellular complex tumor spheroid response to Polymerase (POL) inhibitors (novobiocin, ART-558, RP6685) in combination with a variety of drugs and investigational agents in selected tumor cell lines\nThe POL inhibitors (novobiocin, ART-558, and RP6685) were evaluated both individually and in combination with standard of care and investigational anticancer small molecules within a complex spheroid model of solid tumors. . Complex spheroids include a stromal component modeled by human endothelial cells (HUVEC) and fibroblasts modeled by human mesenchymal stem cells (MSCs). The concentration ranges selected for each drug and investigational agent were based upon clinically achievable concentrations if the clinical Cmax of the agent was known.\nCompounds. The drugs and investigational agents: novobiocin (NSC847541), ART-558 (NSC835418), RP-6685 (NSC848927), peposertib (NSC802822), ceralasertib (NSC780249), elimusertib (NSC800525), camonsertib (NSC841442), AZD-1390 (NSC803789), olaparib (NSC753686), talazoparib (NSC767125), rucaparib (NSC756644), sotorasib (NSC818433), MRTX-1133 (NSC836407), SN-38 (NSC673596), topotecan (NSC609699), epotoside (NSC141540), doxorubicin (NSC123127), gemcitabine (NSC613327), 5-fluorouracil (NSC19893), paclitaxel (NSC125973), vemurafenib (NSC761431), MSA-2 (NSC828583), SN-011 (NSC837082), adavosertib (NSC754352), prexasertib (NSC758257), carboplatin (NSC241240) and oxaliplatin (NSC266046), were obtained from the National Cancer Institute (NCI) Developmental Therapeutics Program Chemical Repository (21). The FDA-approved anticancer drug set is available from the Developmental Therapeutics Program at https://dtp.cancer.gov/organization/dscb/obtaining/. […] The stock solutions were prepared in dimethyl sulfoxide (DMSO, Sigma-Aldrich, St. Louis, MO, cat. D2650), except for the platinum compounds which were prepared in saline (Quality Biological, Gaithersburg, MD, cat. 114-055-101), at 800-fold the tested concentration and stored at -70 degrees C prior to their use. All drugs and investigational agents were tested over a range starting from a high concentration at or near the clinical Cmax and decreasing in half-log increments. If the clinical Cmax for an agent had not been determined, the highest concentration tested was 10 microM, except for SN-38, which was tested at a high concentration of 1 microM.\nCell Culture. All cells were maintained in an incubator at 37 degrees C and 5% CO2 with 95% humidity. The PDC lines were cultured according to standard operating procedures established by the NCI PDMR (https://pdmr.cancer.gov). Table 3 of the manuscript, lists the cell lines along with the number of the three cell types plated to form the mct-spheroids and media for tumor cell growth. After thawing, all PDC lines, except 997537-175-T-J1-PDC and 415267-285-R-J2-PDC, were cultured in Matrigel-coated flasks prepared with a working solution of 1X Ham's F-12 nutrient mix, without supplementation (Thermo Fisher Scientific, cat. 11765054), 100 U/mL penicillin-streptomycin (Thermo Fisher Scientific, cat. 15140122), and 2.5% Matrigel (Corning Inc., Corning, NY, cat. 354248) for the first three passages. The two PDC lines 997537-175-T-J1-PDC and 415267-285-R-J2-PDC were cultured on uncoated flasks. The 857933-349-R-J2-PDC line was cultured in 6C/Colon 1B media containing advanced DMEM/F-12 (Thermo Fisher Scientific, cat. 12634028), 10 mM HEPES (Thermo Fisher Scientific, cat. 15630080), 1X GlutaMAX supplement (Thermo Fisher Scientific, cat. 35050061), 0.1 mg/mL primocin (InvivoGen, San Diego, CA, cat. ant-pm-2), 10% defined fetal bovine serum, heat inactivated (HyClone Laboratories Inc., Logan, UT, cat. SH30070.03HI), 50% L-WRN conditioned media (ATCC, cat. CRL-3276), 1.25 mM N-Acetyl-L-cysteine (Sigma-Aldrich, cat. A9165), 10 mM nicotinamide (Sigma-Aldrich, cat. N0636), 1X B-27 supplement (Thermo Fisher Scientific, cat. 17504044), 1X N-2 supplement (Thermo Fisher Scientific, cat. […]", "data": [{"smiles": "O=C(Nc1ccc(O)c(NS(=O)(=O)c2ccc(F)cc2)c1)c1ccc(-c2ccccc2)cc1", "note": "+ Cc1cccc(N(C)C(=O)C2C(O)CCN2c2nc(C)cc(C(F)(F)F)c2C#N)c1", "values": [{"measurement": "IC50", "setting": "second compound 0.0316 µM", "result": "> 10", "unit": "µM"}, {"measurement": "IC50", "setting": "second compound 0.1 µM", "result": "> 10", "unit": "µM"}, {"measurement": "IC50", "setting": "second compound 0.316 µM", "result": "> 10", "unit": "µM"}, {"measurement": "IC50", "setting": "second compound 1 µM", "result": "> 10", "unit": "µM"}, {"measurement": "IC50", "setting": "second compound 3.16 µM", "result": "> 10", "unit": "µM"}, {"measurement": "IC50", "setting": "second compound 10 µM", "result": "> 10", "unit": "µM"}, {"measurement": "viability, T/C", "setting": "second compound 0.0316 µM, first compound 0.0316 µM", "result": 92, "unit": "%"}, {"measurement": "viability, T/C", "setting": "second compound 0.0316 µM, first compound 0.1 µM", "result": 119, "unit": "%"}, {"measurement": "viability, T/C", "setting": "second compound 0.0316 µM, first compound 0.316 µM", "result": 86.7, "unit": "%"}, {"measurement": "viability, T/C", "setting": "second compound 0.0316 µM, first compound 1 µM", "result": 97.3, "unit": "%"}, {"measurement": "viability, T/C", "setting": "second compound 0.0316 µM, first compound 3.16 µM", "result": 103, "unit": "%"}, {"measurement": "viability, T/C", "setting": "second compound 0.0316 µM, first compound 10 µM", "result": 102, "unit": "%"}, {"measurement": "viability, T/C", "setting": "second compound 0.1 µM, first compound 0.0316 µM", "result": 101, "unit": "%"}, {"measurement": "viability, T/C", "setting": "second compound 0.1 µM, first compound 0.1 µM", "result": 106, "unit": "%"}, {"measurement": "viability, T/C", "setting": "second compound 0.1 µM, first compound 0.316 µM", "result": 100, "unit": "%"}, {"measurement": "viability, T/C", "setting": "second compound 0.1 µM, first compound 1 µM", "result": 98.6, "unit": "%"}, {"measurement": "viability, T/C", "setting": "second compound 0.1 µM, first compound 3.16 µM", "result": 107, "unit": "%"}, {"measurement": "viability, T/C", "setting": "second compound 0.1 µM, first compound 10 µM", "result": 99.8, "unit": "%"}, {"measurement": "viability, T/C", "setting": "second compound 0.316 µM, first compound 0.0316 µM", "result": 101, "unit": "%"}, {"measurement": "viability, T/C", "setting": "second compound 0.316 µM, first compound 0.1 µM", "result": 108, "unit": "%"}, {"measurement": "viability, T/C", "setting": "second compound 0.316 µM, first compound 0.316 µM", "result": 92.4, "unit": "%"}, {"measurement": "viability, T/C", "setting": "second compound 0.316 µM, first compound 1 µM", "result": 96.7, "unit": "%"}, {"measurement": "viability, T/C", "setting": "second compound 0.316 µM, first compound 3.16 µM", "result": 105, "unit": "%"}, {"measurement": "viability, T/C", "setting": "second compound 0.316 µM, first compound 10 µM", "result": 118, "unit": "%"}, {"measurement": "viability, T/C", "setting": "second compound 1 µM, first compound 0.0316 µM", "result": 96.6, "unit": "%"}, {"measurement": "viability, T/C", "setting": "second compound 1 µM, first compound 0.1 µM", "result": 93.6, "unit": "%"}, {"measurement": "viability, T/C", "setting": "second compound 1 µM, first compound 0.316 µM", "result": 98.4, "unit": "%"}, {"measurement": "viability, T/C", "setting": "second compound 1 µM, first compound 1 µM", "result": 97.7, "unit": "%"}, {"measurement": "viability, T/C", "setting": "second compound 1 µM, first compound 3.16 µM", "result": 101, "unit": "%"}, {"measurement": "viability, T/C", "setting": "second compound 1 µM, first compound 10 µM", "result": 115, "unit": "%"}, {"measurement": "viability, T/C", "setting": "second compound 3.16 µM, first compound 0.0316 µM", "result": 98.1, "unit": "%"}, {"measurement": "viability, T/C", "setting": "second compound 3.16 µM, first compound 0.1 µM", "result": 93.7, "unit": "%"}, {"measurement": "viability, T/C", "setting": "second compound 3.16 µM, first compound 0.316 µM", "result": 85.7, "unit": "%"}, {"measurement": "viability, T/C", "setting": "second compound 3.16 µM, first compound 1 µM", "result": 104, "unit": "%"}, {"measurement": "viability, T/C", "setting": "second compound 3.16 µM, first compound 3.16 µM", "result": 109, "unit": "%"}, {"measurement": "viability, T/C", "setting": "second compound 3.16 µM, first compound 10 µM", "result": 99, "unit": "%"}, {"measurement": "viability, T/C", "setting": "second compound 10 µM, first compound 0.0316 µM", "result": 97.8, "unit": "%"}, {"measurement": "viability, T/C", "setting": "second compound 10 µM, first compound 0.1 µM", "result": 84.6, "unit": "%"}, {"measurement": "viability, T/C", "setting": "second compound 10 µM, first compound 0.316 µM", "result": 107, "unit": "%"}, {"measurement": "viability, T/C", "setting": "second compound 10 µM, first compound 1 µM", "result": 86, "unit": "%"}, {"measurement": "viability, T/C", "setting": "second compound 10 µM, first compound 3.16 µM", "result": 104, "unit": "%"}, {"measurement": "viability, T/C", "setting": "second compound 10 µM, first compound 10 µM", "result": 109, "unit": "%"}]}]}
